Source: patent publication US6812380B2, “Compositions and methods of zearalenone detoxification” (Pioneer Hi-Bred International, Inc., priority 2001, dated 2004)

Key:
[1] = target: T1, ZES2b translation products (Bionectria ochroleuca, UniProt Q8NKB0, A65V/H263Y/S41R/T3I); type: biochemical, Gliocladium roseum; conditions: 37° C. for 16 hours
T1 construct: made in house; host or cells: cell-free coupled transcription/translation (Roche RTS500; T7 polymerase, E. coli ribosomes) from plasmids pFMB35-34 (cDNA) and pFMB35-13 (genomic DNA)
T1 sequence (Q8NKB0 1-264 T3I/S41R/A65V/H263Y): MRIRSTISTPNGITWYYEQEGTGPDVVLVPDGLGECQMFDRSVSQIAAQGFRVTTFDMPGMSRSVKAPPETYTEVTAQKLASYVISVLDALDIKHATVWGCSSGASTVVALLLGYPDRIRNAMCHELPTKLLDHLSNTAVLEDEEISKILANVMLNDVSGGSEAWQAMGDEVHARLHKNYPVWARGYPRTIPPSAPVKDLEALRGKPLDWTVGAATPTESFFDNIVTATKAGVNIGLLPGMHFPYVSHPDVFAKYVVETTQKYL

[2] = test system: ZES1, ZES2, and ZES2b transcripts; assay: Differential transcript profiling (Curagen Profiling) of G. roseum cultures; type: cell-based, Gliocladium roseum; conditions: G. roseum cultured with 10 μg/ml for 12 hours at 22° C.
Description: The ZES1, ZES2, and ZES2b sequences of the invention were identified by assaying for differential expression patterns in the presence of α-zearalenol and β-zearalenol, which allowed for identification of the nucleotide sequences of the invention. Specifically, G. roseum was cultured in the presence of either 10 μg/ml α-zearalenol or 10 μg/ml β-zearalenol for 12 hours at 22° C. Following culturing, Curagen Profiling technology was used to identify transcripts present in α-zearalenol-induced cultures but absent in β-zearalenol-induced cultures.

[3] = test system: zearalenone esterase synthesis in G. roseum; conditions: cited from earlier work
[4] = test system: human breast cancer cells; conditions: cited from earlier work
rats = conditions: rat, in vivo; cited from earlier work
uterine tissues = conditions: mouse, in vivo; cited from earlier work
mice = conditions: mouse, in vivo; cited from earlier work
Armenian hamster = conditions: in vivo; cited from earlier work
humans = conditions: in vivo; cited from earlier work

SMILES	degradation of substrate after incubation with the translation product of pFMB35-13 [1]	degradation of substrate after incubation with the translation product of pFMB35-34 [1]	expression of ZES1, ZES2, and ZES2b transcripts in induced cultures [2]	induction of synthesis of zearalenone esterase in G. roseum [3]	entry of human breast cancer cells into the cell cycle [4]	teratogenicity (rats)	modulation of uterine tissues (uterine tissues)	carcinogenicity (mice)	induction of hepatic carcinomas (Armenian hamster)	estrogenic effects in humans (humans)	hyperestrogenic syndrome in humans (humans)
C[C@H]1CCC[C@H](O)CCC/C=C/c2cc(O)cc(O)c2C(=O)O1 [α-zearalenol]	completely degraded	completely degraded	upregulated	occurs only when zearalenone or its derivative α-zearalenol is present in the culture medium	–	–	–	–	–	–	–
C[C@H]1CCC[C@@H](O)CCC/C=C/c2cc(O)cc(O)c2C(=O)O1 [β-zearalenol]	completely degraded	completely degraded	–	does not induce synthesis of zearalenone esterase	–	–	–	–	–	–	–
C[C@H]1CCCC(=O)CCC/C=C/c2cc(O)cc(O)c2C(=O)O1 [zearalenone]	completely degraded	completely degraded	–	occurs only when zearalenone or its derivative α-zearalenol is present in the culture medium	stimulates human breast cancer cells to enter the cell cycle	teratogenic	induce modulation of uterine tissues	carcinogenic	induce hepatic carcinomas	exhibits estrogenic effects	causes hyperestrogenic syndrome
